Where only a bound is given, the exact number is not on record here.

In the test the target is cortisol synthase (CYP11B1) (Macaca fascicularis, UniProt A0A2K5ULY1). Briefly: Inhibition of Cortisol Synthesis. It is filed as biochemical, cynomolgus monkey. The note with it: cynomolgus adrenal gland mitochondria; 150 units of CYP11B1, 11-deoxycortisol as substrate, cortisol measured as product. On the procedure: The aldosterone synthase and cortisol synthase inhibition assays employ cynomolgus adrenal gland mitochondria as the source of aldosterone synthase (CYP11B2) and cortisol synthase (CYP11B1). […] Activity of CYP11B2 and CYP11B1 in these preparations is defined as the amount of enzyme that generates 1 pmol of product in one hour under the conditions described.
Assays are performed in 96-well format in a final volume of 60 μL/well, containing 100 mM potassium phosphate, pH 7.4, 1% (v/v) DMSO, and additionally, 2 μM of corticosterone and 50 units of CYP11B2 activity. Reactions are started by the addition of NADPH to 1 mM and allowed to proceed for 90 minutes at 37° C. Reactions are terminated by the addition of 60 μL of MeCN containing an internal standard for mass spectrometry. One hundred microliters are then transferred to a glass filter plate and centrifuged at 570×g for 5 minutes and the filtrate is collected. Reaction product aldosterone is quantified by mass spectrometry. To determine the assay blank value (0% activity), NADPH is omitted from some reactions.
Dose dependent inhibition is quantified by the inclusion of compound at various concentrations. Maximum activity (100%) is defined by reactions containing NADPH, but without compound.
Assays are performed as for aldosterone synthase except for the use of 150 units of CYP11B1, 11-deoxycortisol as substrate and cortisol measured as product.
On to `NC(=O)c1cccc2c1OCC(c1cncc(CN3CCOCC3=O)c1)O2` (single isomer, unassigned) [Cpd 15A, 2-[5-(3-Oxo-morpholin-4-ylmethyl)-pyridin-3-yl]-2,3-dihydro-benzo[1,4]dioxine-5-carboxylic acid amide], for which the IC50 (as a rule, the point on the concentration scale where inhibition reaches its midpoint) is 15 µM.

As to `NC(=O)c1cccc2c1OCC(c1cncc(CN3CCOCC3=O)c1)O2` (single isomer, unassigned) [Cpd 15B, 2-[5-(3-Oxo-morpholin-4-ylmethyl)-pyridin-3-yl]-2,3-dihydro-benzo[1,4]dioxine-5-carboxylic acid amide], the IC50 is above 30 µM.

Turning to `NC(=O)c1cccc2c1OCC(c1cncc(-c3ccc(S(N)(=O)=O)cc3)c1)O2` (single isomer, unassigned) [Cpd 16A, 2-[5-(4-Sulfamoyl-phenyl)-pyridin-3-yl]-2,3-dihydro-benzo[1,4]dioxine-5-carboxylic acid amide], 5.2 µM corresponded to half-maximal inhibition (IC50).

Regarding `NC(=O)c1cccc2c1OCC(c1cncc(-c3ccc(S(N)(=O)=O)cc3)c1)O2` (single isomer, unassigned) [Cpd 16B, 2-[5-(4-Sulfamoyl-phenyl)-pyridin-3-yl]-2,3-dihydro-benzo[1,4]dioxine-5-carboxylic acid amide], the IC50 was found to be 0.054 µM. This IC50 lies about 96-fold lower than the previous one.

The compound `CC(=O)N1CC[C@H](Oc2cncc(C3COc4c(cccc4C(N)=O)O3)c2)C1` (single isomer, unassigned) [Cpd 17A] yielded an IC50 above 30 µM.

`CC(=O)N1CC[C@H](Oc2cncc(C3COc4c(cccc4C(N)=O)O3)c2)C1` (single isomer, unassigned) [Cpd 17B]: half-maximal inhibition (IC50) required 18 µM.

As to `CC(=O)N1CC[C@@H](Oc2cncc(C3COc4c(cccc4C(N)=O)O3)c2)C1` (single isomer, unassigned) [Cpd 18A], 16 µM corresponded to half-maximal inhibition (IC50).

`CC(=O)N1CC[C@@H](Oc2cncc(C3COc4c(cccc4C(N)=O)O3)c2)C1` (single isomer, unassigned) [Cpd 18B] came in with an IC50 of 1.1 µM.

As to `CC(=O)N1CC(Oc2cncc(C3COc4c(cccc4C(N)=O)O3)c2)C1` (single isomer, unassigned) [Cpd 19A, 2-[5-(1-Acetyl-azetidin-3-yloxy)-pyridin-3-yl]-2,3-dihydro-benzo[1,4]dioxine-5-carboxylic acid amide], the IC50 is above 30 µM.

The compound `CC(=O)N1CC(Oc2cncc(C3COc4c(cccc4C(N)=O)O3)c2)C1` (single isomer, unassigned) [Cpd 19B, 2-[5-(1-Acetyl-azetidin-3-yloxy)-pyridin-3-yl]-2,3-dihydro-benzo[1,4]dioxine-5-carboxylic acid amide] registered an IC50 of 24 µM.

`NC(=O)c1cccc2c1OCC(c1cncc(CO)c1)O2` (single isomer, unassigned) [Cpd 20A, 2-(5-Hydroxymethyl-pyridin-3-yl)-2,3-dihydro-benzo[1,4]dioxine-5-carboxylic acid amide] registered an IC50 of 8.2 µM.

For `NC(=O)c1cccc2c1OCC(c1cncc(CO)c1)O2` (single isomer, unassigned) [Cpd 20B, 2-(5-Hydroxymethyl-pyridin-3-yl)-2,3-dihydro-benzo[1,4]dioxine-5-carboxylic acid amide], the IC50 is 6.8 µM.

Consider `Cc1c(F)cncc1C1COc2c(cccc2C(N)=O)O1` (single isomer, unassigned) [Cpd 21A, 2-(5-Fluoro-4-methyl-pyridin-3-yl)-2,3-dihydro-benzo[1,4]dioxine-5-carboxylic acid amide], for which the IC50 stood at 2.6 µM. This IC50 is about 2.6-fold lower than that of the compound before.

In turn, `Cc1c(F)cncc1C1COc2c(cccc2C(N)=O)O1` (single isomer, unassigned) [Cpd 21B, 2-(5-Fluoro-4-methyl-pyridin-3-yl)-2,3-dihydro-benzo[1,4]dioxine-5-carboxylic acid amide] registered an IC50 of 5.3 µM.

Consider `NC(=O)c1cccc2c1OCC(c1cncc(C(F)F)c1)O2` (single isomer, unassigned) [Cpd 22A, 2-(5-Difluoromethyl-pyridin-3-yl)-2,3-dihydro-benzo[1,4]dioxlne-5-carboxylic acid amide], for which half-maximal inhibition (IC50) was put at 2 µM.

Take `NC(=O)c1cccc2c1OCC(c1cncc(C(F)F)c1)O2` (single isomer, unassigned) [Cpd 22B, 2-(5-Difluoromethyl-pyridin-3-yl)-2,3-dihydro-benzo[1,4]dioxlne-5-carboxylic acid amide]: the IC50 is 2.3 µM.

`Cc1ccncc1C1COc2c(cccc2C(N)=O)O1` (single isomer, unassigned) [Cpd 23A, 2-(4-Methyl-pyridin-3-yl)-2,3-dihydro-benzo[1,4]dioxine-5-carboxylic acid amide] yielded a 50% inhibitory concentration (IC50) of 1.4 µM.

As to `Cc1ccncc1C1COc2c(cccc2C(N)=O)O1` (single isomer, unassigned) [Cpd 23B, 2-(4-Methyl-pyridin-3-yl)-2,3-dihydro-benzo[1,4]dioxine-5-carboxylic acid amide], it took 2 µM to reach half-maximal inhibition (IC50). The IC50 values of the last two compounds are within 1.5-fold of each other.

In the case of `CN(Cc1cncc(C2COc3c(cccc3C(N)=O)O2)c1)C(=O)C1CC1` (single isomer, unassigned) [Cpd 24A, 2-{5-[(Cyclopropanecarbonyl-methyl-amino)-methyl]-pyridin-3-yl}-2,3-dihydro-benzo[1,4]dioxine-5-carboxylic acid amide], the concentration for half-maximal inhibition (IC50) worked out at 7 µM. This IC50 is about 3.5-fold higher than that of the compound before.

The compound `CN(Cc1cncc(C2COc3c(cccc3C(N)=O)O2)c1)C(=O)C1CC1` (single isomer, unassigned) [Cpd 24B, 2-{5-[(Cyclopropanecarbonyl-methyl-amino)-methyl]-pyridin-3-yl}-2,3-dihydro-benzo[1,4]dioxine-5-carboxylic acid amide] displayed an IC50 of 25 µM.

As for `CN(C)C(=O)COCc1cncc(C2COc3c(cccc3C(N)=O)O2)c1` (single isomer, unassigned) [Cpd 25A, 2-(5-Dimethylcarbamoylmethoxymethyl-pyridin-3-yl)-2,3-dihydro-benzo[1,4]dioxine-5-carboxylic acid amide], the IC50 was above 100 µM.

Compound `CN(C)C(=O)COCc1cncc(C2COc3c(cccc3C(N)=O)O2)c1` (single isomer, unassigned) [Cpd 25B, 2-(5-Dimethylcarbamoylmethoxymethyl-pyridin-3-yl)-2,3-dihydro-benzo[1,4]dioxine-5-carboxylic acid amide] registered an IC50 of 15 µM.

For `NC(=O)c1cccc2c1OCC(c1cncc(C3(O)CCC3)c1)O2` (single isomer, unassigned) [Cpd 26A, 2-[5-(1-Hydroxy-cyclobutyl)-pyridin-3-yl]-2,3-dihydro-benzo[1,4]dioxine-5-carboxylic acid amide], inhibition was half-maximal at 1.8 µM (IC50). This IC50 lies about 8.3-fold lower than the previous one.

`NC(=O)c1cccc2c1OCC(c1cncc(C3(O)CCC3)c1)O2` (single isomer, unassigned) [Cpd 26B, 2-[5-(1-Hydroxy-cyclobutyl)-pyridin-3-yl]-2,3-dihydro-benzo[1,4]dioxine-5-carboxylic acid amide] returned a concentration for half-maximal inhibition (IC50) of 0.67 µM.

Consider `Cc1c(C(C)O)cncc1C1COc2c(cccc2C(N)=O)O1` (single isomer, unassigned) [Cpd 27A, 2-[5-(1-Hydroxy-ethyl)-4-methyl-pyridin-3-yl]-2,3-dihydro-benzo[1,4]dioxine-5-carboxylic acid amide], for which half-maximal inhibition (IC50) required 2.8 µM.

Consider `Cc1c(C(C)O)cncc1C1COc2c(cccc2C(N)=O)O1` (single isomer, unassigned) [Cpd 27B, 2-[5-(1-Hydroxy-ethyl)-4-methyl-pyridin-3-yl]-2,3-dihydro-benzo[1,4]dioxine-5-carboxylic acid amide], for which the concentration for half-maximal inhibition (IC50) was 5 µM. This IC50 lies about 1.8-fold higher than the previous one.

The compound `CNC(=O)c1cccc2c1OCC(c1cncc(C(F)(F)F)c1)O2` (single isomer, unassigned) [Cpd 28A, 2-(5-Trifluoromethyl-pyridin-3-yl)-2,3-dihydro-benzo[1,4]dioxine-5-carboxylic acid methylamide] yielded an IC50 above 30 µM.

The compound `CNC(=O)c1cccc2c1OCC(c1cncc(C(F)(F)F)c1)O2` (single isomer, unassigned) [Cpd 28B, 2-(5-Trifluoromethyl-pyridin-3-yl)-2,3-dihydro-benzo[1,4]dioxine-5-carboxylic acid methylamide] showed an IC50 of 6.1 µM. That is a single-digit micromolar value.

For the compound `CN(C)C(=O)Cc1cncc(C2COc3c(cccc3C(N)=O)O2)c1` (single isomer, unassigned) [Cpd 29A, 2-[5-[2-(Dimethylamino)-2-oxo-ethyl]-3-pyridyl]-2,3-dihydro-1,4-benzodioxine-5-carboxamide], the IC50 was found to be 22 µM.

Turning to `CN(C)C(=O)Cc1cncc(C2COc3c(cccc3C(N)=O)O2)c1` (single isomer, unassigned) [Cpd 29B, 2-[5-[2-(Dimethylamino)-2-oxo-ethyl]-3-pyridyl]-2,3-dihydro-1,4-benzodioxine-5-carboxamide], the IC50 was above 30 µM.

For the compound `NC(=O)c1cccc2c1OCC(c1cncc(CC(=O)N3CCC(F)(F)CC3)c1)O2` (single isomer, unassigned) [Cpd 30A, 2-{5-[2-(4,4-Difluoro-piperidin-1-yl)-2-oxo-ethyl]-pyridin-3-yl}-2,3-dihydro-benzo[1,4]dioxine-5-carboxylic acid amide], the IC50 came out at 22 µM.

`NC(=O)c1cccc2c1OCC(c1cncc(CC(=O)N3CCC(F)(F)CC3)c1)O2` (single isomer, unassigned) [Cpd 30B, 2-{5-[2-(4,4-Difluoro-piperidin-1-yl)-2-oxo-ethyl]-pyridin-3-yl}-2,3-dihydro-benzo[1,4]dioxine-5-carboxylic acid amide] returned an IC50 of 24 µM.

Values taken from patent publication US9745289B2, “Aldosterone synthase inhibitors” (Boehringer Ingelheim International GmbH, priority 2014, dated 2017).
